{"source": "patent US8206920B2", "about": "“Diagnostic assay for the specific treatment of acute myeloid leukemia” (priority 2007, dated 2012)", "key": {"ND13 GFP cells": {"system": "ND13 GFP cells", "assay": "Proliferation of cell cultures of transduced ND13 cells expressing GFP with ATRA (FIG. 3)", "format": "cell-based, mouse", "conditions": "0.1 μM or 1 μM ATRA, p=0.026 at 24 hours, p<0.001 at 48, 72 and 96 h", "from_the_text": "(§1) The expression vector encoding GFP contained to the GFP gene under control of the spleen focus-forming virus promoter, integrated into the vector pSF91 (described in detail in Hildinger et al., J. Virol. 73, 4083-4089 (1999)). The MN1 expression vector contained the human MN1 gene under the control of the same promoter in the same vector backbone."}, "ND13 MN1 cells": {"system": "ND13 MN1 cells", "assay": "Proliferation of cell cultures of transduced ND13 cells expressing MN1 with ATRA (FIG. 3)", "format": "cell-based, mouse", "conditions": "0.1 μM or 1 μM ATRA, up to 96 h", "from_the_text": "as §1"}}}
{"compound": "CC1=C(/C=C/C(C)=C/C=C/C(C)=C/C(=O)O)C(C)(C)CCC1", "note": "[ATRA, all-trans retinoic acid]", "values": [{"measurement": "proliferation (cell numbers)", "setting": "ND13 GFP cells", "value": "significant reduction of proliferation"}, {"measurement": "proliferation (cell numbers)", "setting": "ND13 MN1 cells", "value": "no significant reduction of proliferation"}]}
